Assay results: patent US10471046B2, “Method for treating, preventing, or reducing the risk of skin infection” (Melinta Subsidiary Corp., priority 2014, dated 2019)
In brackets after ≈: the same amount, converted by molar mass.

Test system: S. aureus
Experiment: Minimum inhibitory concentrations (MICs) for S. aureus of exemplary compounds (Table 2)
Assay type: cell-based
Details: Staphylococcus aureus, minimum inhibitory concentrations for S. aureus; read-out: MICs
In short: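 Growth of S. aureus in media with or without compound, by broth microdilution in microtiter trays following NCCLS M7-A5 guidelines. Values are MICs in μg/mL.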

Question: Which MIC does the source give for `CC(=O)NC[C@H]1CN(c2ccc(-c3ccc(CNC(=O)c4ccc5cc[nH]c5c4)cc3)c(F)c2)C(=O)O1` [Compound 4011, 1H-Indole-6-carboxylic acid {4′-[5-(S)-(acetylamino-methyl)-2-oxo-oxazolidin-3-yl]-2′-fluoro-biphenyl-4-ylmethyl}-amide] here?
Answer: 1 µg/mL (≈ 2 µM)

Question: How did the MIC turn out when `CC(=O)NC[C@H]1CN(c2ccc(-c3ccc(CSc4ccccn4)cc3)c(F)c2)C(=O)O1` [Compound 2018, N-{3-[2-Fluoro-4′-(pyridin-2-ylsulfanylmethyl)-biphenyl-4-yl]-2-oxo-oxazolidin-5-(S)-ylmethyl}-acetamide] was run?
Answer: 0.25 µg/mL (≈ 0.554 µM)

Question: `O=C1O[C@@H](Cn2cncn2)CN1c1ccc(-c2ccc(CNCc3ccncc3)cc2)c(F)c1` [Compound 4230, 3-(2-Fluoro-4′-{[(pyridin-4-ylmethyl)-amino]-methyl}-biphenyl-4-yl)-5-(R)-[1,2,4]triazol-1-ylmethyl-oxazolidin-2-one] was tested. Which MIC did it give?
Answer: 32 µg/mL (≈ 69.8 µM)

Question: For `CC(=O)NC[C@H]1CN(c2ccc(-c3ccc(CNCc4cnoc4)nc3)c(F)c2)C(=O)O1` [Compound 4252, N-{3-[3-Fluoro-4-(6-{[(isoxazol-4-ylmethyl)-amino]-methyl}-pyridin-3-yl)-phenyl]-2-oxo-oxazolidin-5-(S)-ylmethyl}-acetamide], which MIC is on record?
Answer: 2 µg/mL (≈ 4.55 µM)

Question: How did the MIC turn out when `CCSc1nnnn1Cc1ccc(-c2ccc(N3C[C@H](CNC(C)=O)OC3=O)cc2F)cc1` [Compound 1081, N-{3-[4′-(5-Ethylsulfanyl-tetrazol-1-ylmethyl)-2-fluoro-biphenyl-4-yl]-2-oxo-oxazolidin-5-(S)-ylmethyl}-acetamide] was run?
Answer: 2 µg/mL (≈ 4.25 µM)

Question: Which MIC does the source give for `CC(=O)NC[C@H]1CN(c2ccc(-c3ccc(CN(C)Cc4c(C)nc(O)nc4O)cc3)c(F)c2)C(=O)O1` [Compound 4036, N-[3-(4′-{[(2,4-Dihydroxy-6-methyl-pyrimidin-5-ylmethyl)-methyl-amino]-methyl}-2-fluoro-biphenyl-4-yl)-2-oxo-oxazolidin-5-(S)-ylmethyl]-acetamide] here?
Answer: 4 µg/mL (≈ 7.85 µM)

Question: `CC(=O)NC[C@H]1CN(c2ccc(-c3ccc(Cn4cc(CN)nn4)cc3)c(F)c2)C(=O)O1` [Compound 1011, N-{3-[4′-(4-Aminomethyl-[1,2,3]triazol-1-ylmethyl)-2-fluoro-biphenyl-4-yl]-2-oxo-oxazolidin-5-(S)-ylmethyl}-acetamide] was tested. Which MIC did it give?
Answer: 1 µg/mL (≈ 2.28 µM)

Question: Which MIC does the source give for `CC(=O)NC[C@H]1CN(c2ccc(-c3ccc(CNCc4cc(Br)no4)cc3)c(F)c2)C(=O)O1` [Compound 4253, N-[3-(4′-{[(3-Bromo-isoxazol-5-ylmethyl)-amino]-methyl}-2-fluoro-biphenyl-4-yl)-2-oxo-oxazolidin-5-(S)-ylmethyl]-acetamide] here?
Answer: 0.5 µg/mL (≈ 0.966 µM)

Question: How did the MIC turn out when `CC(=O)NC[C@H]1CN(c2ccc(-c3ccc(CNCc4cc(C)oc4C)cc3)c(F)c2)C(=O)O1` [Compound 4103, N-[3-(4′-{[(2,5-Dimethyl-furan-3-ylmethyl)-amino]-methyl}-2-fluoro-biphenyl-4-yl)-2-oxo-oxazolidin-5-(S)-ylmethyl]-acetamide] was run?
Answer: 8 µg/mL (≈ 17.2 µM)

Question: For `CC(=O)NC[C@H]1CN(c2ccc(-c3ccc(CNCc4ccco4)cc3)c(F)c2)C(=O)O1` [Compound 4026, N-[3-(2-Fluoro-4′-{[(furan-2-ylmethyl)-amino]-methyl}-biphenyl-4-yl)-2-oxo-oxazolidin-5-(S)-ylmethyl]-acetamide], which MIC is on record?
Answer: 1 µg/mL (≈ 2.29 µM)

Question: With `CC(=O)NC[C@H]1CN(c2ccc(-c3ccc(CN(Cc4csnn4)C(N)=O)cc3)c(F)c2)C(=O)O1` [Compound 4299, N-{3-[2-Fluoro-4′-(1-[1,2,3]thiadiazol-4-ylmethyl-ureidomethyl)-biphenyl-4-yl]-2-oxo-oxazolidin-5-(S)-ylmethyl}-acetamide] as the compound, how does the MIC read?
Answer: 2 µg/mL (≈ 4.01 µM)

Question: With `CC(=O)NC[C@H]1CN(c2ccc(-c3ccc(CNCc4cnc5ccccc5c4)cc3)c(F)c2)C(=O)O1` [Compound 4021, N-[3-(2-Fluoro-4′-{[(quinolin-3-ylmethyl)-amino]-methyl}-biphenyl-4-yl)-2-oxo-oxazolidin-5-(S)-ylmethyl]-acetamide] as the compound, how does the MIC read?
Answer: 0.25 µg/mL (≈ 0.501 µM)

Question: For `CC(=O)NC[C@H]1CN(c2ccc(-c3ccc(CNCc4cccc(C#N)c4)cc3)c(F)c2)C(=O)O1` [Compound 4070, N-(3-{4′-[(3-Cyano-benzylamino)-methyl]-2-fluoro-biphenyl-4-yl}-2-oxo-oxazolidin-5-(S)-ylmethyl)-acetamide], which MIC is on record?
Answer: 1 µg/mL (≈ 2.12 µM)

Question: With `CC(=O)NC[C@H]1CN(c2ccc(-c3ccc(Cn4nccn4)cc3)c(F)c2)C(=O)O1` [Compound 1023, N-[3-(2-Fluoro-4′-[1,2,3]triazol-2-ylmethyl-biphenyl-4-yl)-2-oxo-oxazolidin-5-(S)-ylmethyl]-acetamide] as the compound, how does the MIC read?
Answer: 0.25 µg/mL (≈ 0.611 µM)

Question: `CC(=O)NC[C@H]1CN(c2ccc(-c3ccc(CNCCSc4nncs4)cc3)c(F)c2)C(=O)O1` [Compound 5003, N-[3-(2-Fluoro-4′-{[2-([1,3,4]thiadiazol-2-ylsulfanyl)-ethylamino]-methyl}-biphenyl-4-yl)-2-oxo-oxazolidin-5-(S)-ylmethyl]-acetamide] was tested. Which MIC did it give?
Answer: 1 µg/mL (≈ 1.99 µM)

Question: How did the MIC turn out when `CC(=O)NC[C@H]1CN(c2ccc(-c3ccc(Cc4nnn[nH]4)cc3)c(F)c2)C(=O)O1` [Compound 1007, N-{3-[2-Fluoro-4′-(1H-tetrazol-5-(S)-ylmethyl)-biphenyl-4-yl]-2-oxo-oxazolidin-5-(S)-ylmethyl}-acetamide] was run?
Answer: 8 µg/mL (≈ 19.5 µM)

Question: For `CC(=O)NC[C@H]1CN(c2ccc(-c3ccc(CNCc4sc(C)nc4C)cc3)c(F)c2)C(=O)O1` [Compound 4108, N-[3-(4′-{[(2,4-Dimethyl-thiazol-5-ylmethyl)-amino]-methyl}-2-fluoro-biphenyl-4-yl)-2-oxo-oxazolidin-5-(S)-ylmethyl]-acetamide], which MIC is on record?
Answer: 4 µg/mL (≈ 8.29 µM)

Question: `CC(=O)NC[C@H]1CN(c2ccc(-c3ccc(CCSc4cnn[nH]4)cc3)c(F)c2)C(=O)O1` [Compound 2026, N-(3-{2-Fluoro-4′-[2-(3H-[1,2,3]triazol-4-ylsulfanyl)-ethyl]-biphenyl-4-yl}-2-oxo-oxazolidin-5-(S)-ylmethyl)-acetamide] was tested. Which MIC did it give?
Answer: 0.25 µg/mL (≈ 0.549 µM)

Question: `CC(=O)NC[C@H]1CN(c2ccc(-c3ccc(CN(C)C(=O)c4ccc5cc[nH]c5c4)cc3)c(F)c2)C(=O)O1` [Compound 4050, 1H-Indole-6-carboxylic acid {4′-[5-(S)-(acetylamino-methyl)-2-oxo-oxazolidin-3-yl]-2′-fluoro-biphenyl-4-ylmethyl}-methyl-amide] was tested. Which MIC did it give?
Answer: 1 µg/mL (≈ 1.94 µM)

Question: `CC(=O)NC[C@H]1CN(c2ccc(-c3ccc(CN4CCN(CC#N)CC4)cc3)c(F)c2)C(=O)O1` [Compound 1004, N-{3-[4′-(4-Cyanomethyl-piperazin-1-ylmethyl)-2-fluoro-biphenyl-4-yl]-2-oxo-oxazolidin-5-(S)-ylmethyl}-acetamide] was tested. Which MIC did it give?
Answer: 2 µg/mL (≈ 4.3 µM)

Question: With `CSc1nnnn1Cc1ccc(-c2ccc(N3C[C@H](CNC(C)=O)OC3=O)cc2F)cc1` [Compound 1079, N-{3-[2-Fluoro-4′-(5-methylsulfanyl-tetrazol-1-ylmethyl)-biphenyl-4-yl]-2-oxo-oxazolidin-5-(S)-ylmethyl}-acetamide] as the compound, how does the MIC read?
Answer: 2 µg/mL (≈ 4.38 µM)

Question: How did the MIC turn out when `CC(=O)NC[C@H]1CN(c2ccc(-c3ccc(CNC4CNC4)cc3)c(F)c2)C(=O)O1` (racemic) [Compound 2011, N-{3-[4′-(Azetidin-3-(R/S)-ylaminomethyl)-2-fluoro-biphenyl-4-yl]-2-oxo-oxazolidin-5-(S)-ylmethyl}-acetamide] was run?
Answer: 8 µg/mL (≈ 19.4 µM)

Question: For `CC(=O)NC[C@H]1CN(c2ccc(-c3ccc(CN(Cc4nnn(C)n4)C(=O)OC(C)(C)C)cc3)c(F)c2)C(=O)O1` [Compound 4281, {4′-[5-(S)-(Acetylamino-methyl)-2-oxo-oxazolidin-3-yl]-2′-fluoro-biphenyl-4-ylmethyl}-(2-methyl-2H-tetrazol-5-ylmethyl)-carbamic acid tert-butyl ester], which MIC is on record?
Answer: 2 µg/mL (≈ 3.61 µM)

Question: How did the MIC turn out when `CC(=O)NC[C@H]1CN(c2ccc(-c3ccc(CN4CCN(CCO)CC4)cc3)c(F)c2)C(=O)O1` [Compound 1029, N-(3-{2-Fluoro-4′-[4-(2-hydroxy-ethyl)-piperazin-1-ylmethyl]-biphenyl-4-yl}-2-oxo-oxazolidin-5-(S)-ylmethyl)-acetamide] was run?
Answer: 2 µg/mL (≈ 4.25 µM)

Question: With `CC(=O)NC[C@H]1CN(c2ccc(-c3ccc(CNS(=O)(=O)c4ccc(C(F)(F)F)cc4)cc3)c(F)c2)C(=O)O1` [Compound 2058, N-(3-{2-Fluoro-4′-[(4-trifluoromethyl-benzenesulfonylamino)-methyl]-biphenyl-4-yl}-2-oxo-oxazolidin-5-(S)-ylmethyl)-acetamide] as the compound, how does the MIC read?
Answer: 32 µg/mL (≈ 56.6 µM)

Question: Which MIC does the source give for `CC(=O)NC[C@H]1CN(c2ccc(-c3ccc(CNCc4[nH]ncc4Br)cc3)c(F)c2)C(=O)O1` [Compound 4169, N-[3-(4′-{[(4-Bromo-2H-pyrazol-3-ylmethyl)-amino]-methyl}-2-fluoro-biphenyl-4-yl)-2-oxo-oxazolidin-5-(S)-ylmethyl]-acetamide] here?
Answer: 2 µg/mL (≈ 3.87 µM)

Question: With `CC(=O)NC[C@H]1CN(c2ccc(-c3ccc(CNC(=O)c4ccncc4)cc3)c(F)c2)C(=O)O1` [Compound 4142, N-{4′-[5-(S)-(Acetylamino-methyl)-2-oxo-oxazolidin-3-yl]-2′-fluoro-biphenyl-4-ylmethyl}-isonicotinamide] as the compound, how does the MIC read?
Answer: 2 µg/mL (≈ 4.32 µM)

Question: How did the MIC turn out when `CC(=O)NC[C@H]1CN(c2ccc(-c3ccc(Cn4cnnn4)nc3)c(F)c2)C(=O)O1` [Compound 1035, N-{3-[3-Fluoro-4-(6-tetrazol-1-ylmethyl-pyridin-3-yl)-phenyl]-2-oxo-oxazolidin-5-(S)-ylmethyl}-acetamide] was run?
Answer: 0.5 µg/mL (≈ 1.22 µM)

Question: `CC(=O)NC[C@H]1CN(c2ccc(-c3ccc(CNC(=O)C(N)Cc4cccnc4)cc3)c(F)c2)C(=O)O1` (stereo in doubt) [Compound 4310, N-{4′-[5-(S)-(Acetylamino-methyl)-2-oxo-oxazolidin-3-yl]-2′-fluoro-biphenyl-4-ylmethyl}-2-(R)-amino-3-pyridin-3-yl-propionamide] was tested. Which MIC did it give?
Answer: 4 µg/mL (≈ 7.91 µM)

Question: With `CC(=O)NC[C@H]1CN(c2ccc(-c3ccc(CNCc4cccnc4)cc3)c(F)c2)C(=O)O1` [Compound 4025, N-[3-(2-Fluoro-4′-{[(pyridin-3-ylmethyl)-amino]-methyl}-biphenyl-4-yl)-2-oxo-oxazolidin-5-(S)-ylmethyl]-acetamide] as the compound, how does the MIC read?
Answer: 1 µg/mL (≈ 2.23 µM)

Question: For `CC(=O)NC[C@H]1CN(c2ccc(-c3ccc(CNS(=O)(=O)CCN4C(=O)c5ccccc5C4=O)cc3)c(F)c2)C(=O)O1` [Compound 4136, N-[3-(4′-{[2-(1,3-Dioxo-1,3-dihydro-isoindol-2-yl)-ethanesulfonylamino]-methyl}-2-fluoro-biphenyl-4-yl)-2-oxo-oxazolidin-5-(S)-ylmethyl]-acetamide], which MIC is on record?
Answer: 8 µg/mL (≈ 13.5 µM)
